Source: PMC11683478, “Bioprospecting of culturable marine biofilm bacteria for novel antimicrobial peptides” (iMeta, 2024)
Where no end group is shown, it is not given here.

Key:
[1] = system: eight pathogenic bacterial strains; assay: MIC, panel statement; type: cell-based; conditions: panel of eight strains, CAMHB, 37°C
Description: Eight bacterial strains were utilized in the antibacterial experiment. S. aureus ATCC 12600, B. subtilis ATCC 23857, E. coli ATCC 11775, and A. baumannii ATCC 19606 were purchased from Shanghai Beinuo Biology. M. luteus ATCC 4698 and S. bongori ATCC43975 were purchased from Shanghai Beisi Biotechnology. V. owensii ems001 and V. alginolyticus xv22 from the intestines of diseased shrimps were isolated in our laboratory. All strains were cultured in the cation‐adjusted Mueller‐Hinton broth (CAMHB) at 37°C to the logarithmic growth phase (OD600 = 0.5). Then, bacteria were gradient‐diluted using fresh CAMHB to a bacterial density of 5 × 10^5 CFU/mL. Antibacterial experiments were performed in a 96‐well plate with 200 μg/mL final peptide concentration. Four experimental groups were set up, including a blank control (200 μL CAMHB), a negative control (180 μL CAMHB plus 20 μL peptide), a positive control (180 μL bacterial culture plus 20 μL ultrapure water), and an experimental group (180 μL bacterial culture plus 20 μL peptide). Three biological replicates were conducted for each group, and OD600 values were measured after incubation at 37°C for 12 h. Every observed value was removed from the blank control group value. […] The MIC of a peptide against a bacterium was determined as the minimum peptide concentration at which there was no visible bacterial growth.

sheep red blood cells = conditions: red cells of sheep, 1 h
Description: Freshly collected sheep blood was centrifuged at 3000 rpm for 10 min, and the supernatant was removed. The pellet was washed and resuspended with normal saline water to produce a 2% blood cell solution. Then, 400 μL of peptide solution was added to 100 μL of 2% blood cell solution to achieve final peptide concentrations of 8, 16, 32, 64, and 128 μg/mL. Normal saline water and Triton X‐100 normal saline solution (2%) were used as negative and positive controls, respectively. The samples were incubated in a water bath at 37°C for 1 h, followed by centrifugation at 3000 rpm for 10 min. Then, 200 μL of the supernatant was transferred to a 96‐well plate, and OD values were measured at a wavelength of 545 nm. The hemolysis rate of each sample was calculated using the following formula: Hemolysis ratio=OD545(experimental)−OD545(negative control)/OD545(positive control)−OD545(negative control)×100%.

[2] = system: human normal colon epithelial cells (NCM-460); type: cell-based; conditions: 48 h
Description: Human normal colon epithelial cells (NCM‐460) were purchased from the BeNa Culture Collection. Cytotoxicity was measured using the 3‐[4,5‐dimethylthiazol‐2‐yl]−2,5 diphenyl tetrazolium bromide (MTT) assay. The NCM‐460 cells were cultured in the Dulbecco's modified Eagle's medium (DMEM)‐H complete culture medium (90% DMEM‐H, 10% FBS, 10,000 U/mL penicillin, and 10,000 μg/mL streptomycin) to logarithmic growth phase. The suspension of cells was prepared at 10^5 cells/100 μL/well in a 96‐well plate. The peptides selected for the assay were dissolved in the DMEM‐H medium to prepare a 25 mg/mL stock solution, diluted for multiple gradients of 4–512 μg/mL. Afterwards, the peptides that had been diluted (100 μL/well) were introduced into the cells residing on a 96‐well plate. The DMEM‐H medium served as the blank group, the cell suspension as the control group, and the cell suspension combined with the peptide as the experimental group. Each group was conducted in three separate replicates. After 48 h of culture, 10 μL MTT was added to each well and incubated further at 37°C for 4 h. Then 100 μL Formazan solution was added and incubated further at 37°C for 4 h until all the purple crystals were dissolved. The absorbances were measured at OD570. Cell viability was determined by calculating cell viability using the following formula. Cell viability=OD570(experimental)−OD570(blank)/OD570(control)−OD570(blank)×100%.
Then, the CC50 value of each AMP molecule was calculated using an online tool: https://www.aatbio.com/tools/ic50-calculator.

Sequence	MIC against nearly all strains [1] [µg/mL]	Hemolysis ratio (%) at 8μg/mL (sheep red blood cells) [%]	Hemolysis ratio (%) at 16μg/mL (sheep red blood cells) [%]	Hemolysis ratio (%) at 32μg/mL (sheep red blood cells) [%]	Hemolysis ratio (%) at 64μg/mL (sheep red blood cells) [%]	Hemolysis ratio (%) at 128μg/mL (sheep red blood cells) [%]	Cytotoxicity CC50 [2] [µg/mL]
MKKCRRKVLFGLWRRN [Cand-77]	≤ 32	3.431	4.302	5.822	8.387	12.471	45.263
MSRSLRNLLKYVWVKVKGE [Cand-217]	≤ 32	2.490	2.604	4.447	9.600	–	25.740
MRCSLKKIISTFFS [Cand-71]	–	6.779	7.213	15.000	–	19.534	23.841
